Results on three compounds are retold here after patent US11958814B1, “3-(4-nitrophenyl)-5-((2-isopropyl-5-methylphenoxy)methyl)-1,2,4-oxadiazole as an anti-cancer and antimicrobial compound” (KING FAISAL UNIVERSITY, priority 2023, dated 2024).

Data set [1] deals with human osteosarcoma cells (MG-63). The data set is described as follows: Cytotoxicity by SRB assay. The following applies: MG-63 cells, 0.01 μM to 100 μM for 72 h. The class given is cell-based. An excerpt: (§1) The anticancer activity of the described synthesized compounds against highly aggressive androgen-independent metastatic human prostate cancer cells (PC3) and osteosarcoma (MG-63) cells. The human prostate cancer cells (PC3) and human osteosarcoma cells (MG-63) were obtained from Nawah Scientific Inc. (Mokatam, Cairo, Egypt) and cultured in DMEM (Dulbecco's modified eagle's medium), Gibco, USA, supplemented with fetal bovine serum (FBS) at a concentration of 10% and 100 U/mL of penicillin and streptomycin (PS). The Cells were incubated at 37° C. in a humidified environment that contained 5% CO2.
(§2) Cells were seeded in 96-well plates as aliquots of 100 μL cell suspension and incubated in a complete media for 24 h. afterward, cells were treated with 3-(4-nitrophenyl)-5-((2-isopropyl-5-methylphenoxy)methyl)-1,2,4-oxadiazole at diverse concentrations ranging from 0.01 μM to 100 μM for 72 h. Then, cells were fixed at 4° C. for one hour with 150 μL of 10% trichloroacetic acid (TCA). […] Then, 150 μL of Tris pH 10.5 (10 mM) was added, and the absorbance was measured at 540 nm using a BMG LABTECH®-FLUOstar Omega microplate reader (Ortenberg, Germany). Half maximal inhibitory concentrations (IC50) values were calculated for each experiment using GraphPad Prism 6 software. […]
(§3) The inhibition was calculated using the following equation: Inhibition %=100−Average Viability

The subject of data set [2] is human prostate cancer cells (PC3). The data set is described as follows: Cytotoxicity by SRB assay. It is filed as cell-based. The following applies: 0.01 μM to 100 μM for 72 h.
Excerpt: as §1, §2, §3

The subject of data set [3] is Bacillus cereus. The experiment in a line: Agar plate disc-diffusion, inhibition zone. It is filed as cell-based. As to conditions: 37° C., 48 h. As to the method: (§4) The agar plate disc-diffusion method was applied. Sterilized filter papers (6 mm in diameter) were wetted with 10 μL of a solution of 3-(4-nitrophenyl)-5-((2-isopropyl-5-methylphenoxy)methyl)-1,2,4-oxadiazole (3) to be tested, containing 10 mg/mL in DMSO, and the discs were allowed to air dry. The discs were then placed onto the surface of agar plates (nutrient agar for bacteria and Sabouraud's dextrose agar for fungi) seeded with the test organism. Each plate contained 15 mL of the agar medium, previously seeded with 0.2 mL of the broth culture of each organism pregrown for 18 hours. The plates were incubated at 37° C. for 48 h, and 72 h for fungi. The inhibition zones were measured in mm. Discs impregnated with DMSO were used as a control, and its inhibition zone was subtracted from the tested compound actual inhibition zone.

The subject of data set [4] is Escherichia coli. The data set is described as follows: Agar plate disc-diffusion, inhibition zone. As to conditions: 37° C., 48 h. The class given is cell-based. Here is the method: as §4
The subject of data set [5] is Pseudomonas aeruginosa. The experiment in a line: Agar plate disc-diffusion, inhibition zone. As to conditions: 37° C., 48 h. It is filed as cell-based. Here is the method: as §4
Data set [6] deals with Staphylococcus aureus. The data set is described as follows: Agar plate disc-diffusion, inhibition zone. The class given is cell-based. The following applies: 37° C., 48 h. Here is the method:
as §4

Data set [7] has as its system Aspergillus flavus. The experiment in a line: Agar plate disc-diffusion, inhibition zone (antifungal). It is filed as cell-based. As to conditions: 72 h for fungi. Here is the method:
as §4

For data set [8], the system named is Chrysosporium keratinophilum. The description is as above. It is filed as cell-based. As to conditions: 72 h for fungi. Here is the method:
as §4

Data set [9] has as its system different microbes. The data set is described as follows: Antimicrobial screening by agar plate disc-diffusion, overall statement. It is filed as cell-based. The following applies: against different microbes (bacteria and fungi of Tables 1 and 2). As to the method: as §4
[10] abbreviates: A = concentration of comp. = 10,000 μg/mL.
Where [11] appears, read: B = concentration of comp. = 30,000 μL.
Where [12] appears, read: C = concentration of comp. = 50,000 μL.
[13] abbreviates: A = concentration of comp. = 10,000 μL.
Setting [14] is: A = concentration of comp. = 10 mg/mL.

Consider `Cc1ccc(C(C)C)c(OCc2nc(-c3ccc([N+](=O)[O-])cc3)no2)c1` [3-(4-nitrophenyl)-5-((2-isopropyl-5-methylphenoxy)methyl)-1,2,4-oxadiazole], for which the “antiproliferative activity (in words)” value in [1] and in data set [2] was “excellent antiproliferative activities” each time.

As to `O=C(O)c1cn(C2CC2)c2cc(N3CCNCC3)c(F)cc2c1=O` [Cip., ciprofloxacin, reference compound], the inhibition zone in [3] (setting [10]) came to 29 mm; in [3] (setting [11]), 30 mm; in data set [3] (setting [12]), 42 mm; in data set [4] (setting [13]), 30 mm; in data set [4] (setting [11]), 39 mm; in data set [4] (setting [12]) it was 60 mm. In addition, the inhibition zone in data set [5] (setting [13]) is given as 29 mm; in data set [5] (setting [11]) it was 30 mm; in [5] (setting [12]), 53 mm; in data set [6] (setting [14]), 43 mm; in [6] (setting [11]) it was 44 mm; in data set [6] (setting [12]) it was 53 mm. The inhibition zone turned out to be 29 mm in data set [7] (setting [13]); 30 mm in data set [7] (setting [11]); 42 mm in data set [7] (setting [12]); 29 mm in data set [8] (setting [13]); 30 mm in data set [8] (setting [11]); 53 mm in [8] (setting [12]).

`Cc1ccc(C(C)C)c(OCc2nc(-c3ccc([N+](=O)[O-])cc3)no2)c1` [Compound 3, 3-(4-nitrophenyl)-5-((2-isopropyl-5-methylphenoxy)methyl)-1,2,4-oxadiazole] showed a melting point of 172 to 173 °C. The compound further yielded an inhibition zone in data set [3] (setting [10]) of 22 mm. Besides, the inhibition zone in [3] (setting [11]) is given as 25 mm. In data set [3] (setting [12]), this compound displayed an inhibition zone of 38 mm. For the same compound, the inhibition zone in data set [4] (setting [13]) was 27 mm. In [4] (setting [11]), the inhibition zone is 36 mm. In data set [4] (setting [12]), this compound displayed an inhibition zone of 50 mm. Moreover, the inhibition zone in [5] (setting [13]) was determined as 26 mm. For the same compound, in data set [5] (setting [11]), the inhibition zone stood at 27 mm. For the same compound, the inhibition zone in [5] (setting [12]) turned out to be 43 mm. Further, the inhibition zone in [6] (setting [14]) came out at 18 mm. Moreover, the inhibition zone in [6] (setting [11]) came out at 23 mm. In [6] (setting [12]), this compound had an inhibition zone of 35 mm. In data set [7] (setting [13]), the inhibition zone was 20 mm. This compound came in with an inhibition zone in data set [7] (setting [11]) of 23 mm. The same compound registered an inhibition zone in data set [7] (setting [12]) of 36 mm. Moreover, the inhibition zone in data set [8] (setting [13]) is reported as 28 mm. This compound came in with an inhibition zone in data set [8] (setting [11]) of 30 mm. The compound also registered an inhibition zone in data set [8] (setting [12]) of 49 mm. For the same compound, the “antimicrobial activity (in words)” value in data set [9] is “excellent antimicrobial activities”.
